Some test systems named below: NCI-H460 lung; OVCAR-3 ovarian; LOX IMVI melanoma; SW-620 colon; SNB-19 CNS; MDA-N; SNB-75 CNS; DU-145 prostate; UACC-62 melanoma; RPMI-8226 leukemia.
Test in all cases: NCI tumour cell line growth inhibition, 48 h

The structures appear in SMILES notation.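 Briefly, cells in 96-well plates were exposed to five compound concentrations for 48 h, and endpoints were estimated by linear interpolation. At the TGI there is no net growth.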

With `CC1(C)CCC[C@]2(C)[C@@H]1CC[C@@]13O[C@@H]1C1=C(CO)C(=O)O[C@]14O[C@@H]4[C@@H]23`, the TGI amounted to 41 µM in the test with NCI-H460 lung; 27.1 µM in the test on OVCAR-3 ovarian; 24 µM with LOX IMVI melanoma; 29.5 µM with SW-620 colon; 27.9 µM with SNB-19 CNS; 20.1 µM in the test with MDA-N. The TGI in the test with SNB-75 CNS is 30.6 µM; in the test on DU-145 prostate, 33.8 µM; with UACC-62 melanoma it was 37.7 µM; with RPMI-8226 leukemia, over 100 µM.

Consider `COc1cc2c(cc1OCCCC(=O)Nc1cc(C(=O)Nc3cc(C(=O)Nc4cc(C(=O)NCCCN(C)C)n(C)c4)n(C)c3)n(C)c1)N=C[C@@H]1CCCN1C2=O`, for which the TGI with NCI-H460 lung was 17.6 µM; with OVCAR-3 ovarian, 3.62 µM; in the test with LOX IMVI melanoma, 2.26 µM; with SW-620 colon, 5.98 µM; with SNB-19 CNS, 17.6 µM; in the test on MDA-N it was 3.8 µM. Besides, the TGI in the test with SNB-75 CNS came out at 9.95 µM; in the test on DU-145 prostate, 10.2 µM; in the test on UACC-62 melanoma, 6.53 µM; in the test with RPMI-8226 leukemia, 14.6 µM.

Turning to `CCOC(=O)C1=CN=C2C(=O)N(c3ccccc3)N(C)C2(C)C1=N` (stereo not given), the TGI in the test on NCI-H460 lung, in the test on OVCAR-3 ovarian, with LOX IMVI melanoma, with SW-620 colon, in the test on SNB-19 CNS and in the test with MDA-N was over 100 µM throughout. Besides, the TGI in the test on SNB-75 CNS, in the test with DU-145 prostate, in the test with UACC-62 melanoma and in the test on RPMI-8226 leukemia was over 100 µM in each case.

In the case of `CCOC(=O)C(=[N+]=[N-])C(=O)C[N+]12CCN(CC1)CC2`, the TGI in the test with NCI-H460 lung, in the test on OVCAR-3 ovarian, in the test with LOX IMVI melanoma, in the test on SW-620 colon, in the test on SNB-19 CNS and with MDA-N was over 100 µM throughout. Moreover, the TGI in the test on SNB-75 CNS, in the test with DU-145 prostate, in the test on UACC-62 melanoma and with RPMI-8226 leukemia was over 100 µM in each case.

On to `COc1ccc2oc(S(=O)(=O)N3CC(CCl)c4ccc([N+](=O)[O-])cc43)cc2c1` (stereo not given), for which the TGI in the test with NCI-H460 lung was 0.401 µM; with OVCAR-3 ovarian, 0.457 µM; in the test on LOX IMVI melanoma, 1.38 µM; in the test with SW-620 colon it was over 100 µM; with SNB-19 CNS it was 29.2 µM; in the test on MDA-N, 11 µM. Also, the TGI is over 36.8 µM in the test on SNB-75 CNS, 0.317 µM in the test on DU-145 prostate, over 37.6 µM in the test on UACC-62 melanoma and over 100 µM in the test on RPMI-8226 leukemia.
